Experimental data as given in patent publication US20260159512A1, “BCAT2 INHIBITORS” (AGIOS PHARMACEUTICALS, INC., priority 2021, published 2026).

Key:
[1] = molecular target: T1, BCAT2 (Homo sapiens, UniProt O15382); assay: BCAT2 in vitro cell inhibition using engineered A549 cells (KMV cell assay, 13C6-KMV by LC-MS/MS); assay type: cell-based; set-up: The result was an engineered A549 cell line that expressed endogenous BCAT2; endogenous in cells; host or cells: A549 cells with MUT and BCAT1 knocked out by CRISPR/CAS9; key to BCAT2 Cell Inhibition: A: less than or equal to 0.100 μM; B: greater than 0.100 and less than or equal to 0.500 μM; C: greater than 0.500 and less than or equal to 1.000 μM; d: greater than 1.000 μM; E: no fit; details: average where tested multiple times
T1 sequence (O15382 28-392): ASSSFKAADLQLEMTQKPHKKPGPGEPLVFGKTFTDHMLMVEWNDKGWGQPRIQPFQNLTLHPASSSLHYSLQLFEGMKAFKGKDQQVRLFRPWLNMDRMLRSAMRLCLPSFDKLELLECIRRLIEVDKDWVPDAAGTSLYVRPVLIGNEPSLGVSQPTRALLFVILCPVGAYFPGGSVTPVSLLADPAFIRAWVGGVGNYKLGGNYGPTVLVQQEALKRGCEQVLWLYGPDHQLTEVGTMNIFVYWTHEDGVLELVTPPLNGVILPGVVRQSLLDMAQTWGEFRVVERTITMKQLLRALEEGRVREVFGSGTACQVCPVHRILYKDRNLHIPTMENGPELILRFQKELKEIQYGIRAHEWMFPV

[2] = molecular target: T1, BCAT2; assay: BCAT2 in vitro enzyme inhibition assay (resazurin/diaphorase-coupled fluorescence); assay type: biochemical; details: average where tested multiple times
Procedure: BCAT2 In Vitro Enzyme Inhibition Assay
1.67× hBCAT2 Enzyme Mix: 0.33 μg/mL hBCAT2, 1× Buffer
2.5× Substrate Mix: 460 μM L-leucine, 420 μM α-KetoGlutarate, 10 U/mL glutamate dehydrogenase, 10 mM NAD, 30 μg/mL diaphorase, 20 μm Resazurin
BCAT2 enzyme stock solution was diluted to prepare a 1.67× hBCAT2 Enzyme Mix. 1 μL of test compound was first added to the reaction wells followed by 30 μL of 1.67× hBCAT2 Enzyme Mix and incubated at room temperature (25° C.) for one hour. Meanwhile the Substrate Mix was prepared. The reaction was initiated by the addition of 20 μL of the 2.5× Substrate Mix, bringing the final reaction mix of all components to 1×. Reactions were quenched after one hour by the addition of 25 μL of 6% SDS and reaction progress was measured via fluorescence read (Ex 540/Em 590).
Test Compound Preparation:
Test compounds were prepared at 50× final concentration in DMSO, 1 to 3 dilutions were made for 10 points. The compounds were added to the assay as a 1 to 50 dilution (1 μL in 50 μL) to yield a top assay final concentration of 100 μM, decreasing 3-fold for 10 points. Each compound dilution series test also included an assay max (1 μL DMSO Added in lieu of compound, Full Reaction Components Included) and Min (1 μL DMSO Added in lieu of compound, 30 μl of 1.67× hBCAT2 Enzyme Mix replated by 30 μL of 1× Buffer). All tests were performed in technical duplicate.
Where a compound was tested multiple times, the average value of the tests is reported.

BCAT2 Cell Inhibition [1] | IC50 [2] | IC50 [1] | Compound
E | > 1 µM | – | CC(C)Cc1nc2cnc(N3CCC[C@H]3C(C)(C)O)cc2n1[C@@H]1CCC[C@H](NC(=O)c2ncc(Cl)s2)C1 [Example 193, 5-chloro-N-((1S,3R)-3-(6-((S)-2-(2-hydroxypropan-2-yl)pyrrolidin-1-yl)-2-isobutyl-1H-imidazo[4,5-c]pyridin-1-yl)cyclohexyl)thiazole-2-carboxamide]
– | > 1 µM | > 1 µM | CO[C@@H]1C[C@@H](NC(=O)c2ncc(Cl)s2)C[C@@H](n2c(-c3ccccc3F)nc3cnc(N4CCC[C@H]4CO)cc32)C1 [Example 430, 5-chloro-N-((1S,3R,5R)-3-(2-(2-fluorophenyl)-6-((S)-2-(hydroxymethyl)pyrrolidin-1-yl)-1H-imidazo[4,5-c]pyridin-1-yl)-5-methoxycyclohexyl)thiazole-2-carboxamide]
– | ≤ 0.1 µM | > 1 µM | CC(C)Cc1nc2cnc(-n3nccn3)cc2n1[C@H]1C[C@H](O)C[C@@H](NC(=O)c2ccc(Cl)s2)C1 (single isomer, unassigned) [Example 396]
– | 0.1 to 0.5 µM | > 1 µM | O=C(N[C@@H]1C[C@@H](O)C[C@H](n2c(-c3ccccc3F)nc3cnc(-c4ccn[nH]4)cc32)C1)c1ncc(Cl)s1 (single isomer, unassigned) [Example 259]
E | > 1 µM | – | CC(C)Cc1nc2cnc(-c3ccccn3)cc2n1[C@@H]1C[C@H](NC(=O)c2ncc(Cl)s2)CN(C)C1 [Example 263, 5-chloro-N-((3S,5R)-5-(2-isobutyl-6-(pyridin-2-yl)-1H-imidazo[4,5-c]pyridin-1-yl)-1-methylpiperidin-3-yl)thiazole-2-carboxamide]
E | > 1 µM | – | CC(C)Cc1nc2cnc(N3CCC[C@@H]3C(N)=O)cc2n1[C@@H]1CCC[C@H](NC(=O)c2ncc(Cl)s2)C1 [Example 308, N-((1S,3R)-3-(6-((R)-2-carbamoylpyrrolidin-1-yl)-2-isobutyl-1H-imidazo[4,5-c]pyridin-1-yl)cyclohexyl)-5-chlorothiazole-2-carboxamide]
E | 0.5 to 1 µM | – | CC(C)C(F)(F)c1nc2cnc(-c3ccccn3)cc2n1[C@@H]1CCC[C@H](NC(=O)c2ncc(Cl)s2)C1 [Example 318, 5-chloro-N-((1S,3R)-3-(2-(1,1-difluoro-2-methylpropyl)-6-(pyridin-2-yl)-1H-imidazo[4,5-c]pyridin-1-yl)cyclohexyl)thiazole-2-carboxamide]
E | 0.1 to 0.5 µM | – | O=C(N[C@H]1CCC[C@@H](n2c(-c3ccccc3F)nc3cnc(O[C@@H]4CCOC4)cc32)C1)c1ncc(Cl)s1 [Example 266, 5-chloro-N-((1S,3R)-3-(2-(2-fluorophenyl)-6-(((R)-tetrahydrofuran-3-yl)oxy)-1H-imidazo[4,5-c]pyridin-1-yl)cyclohexyl)thiazole-2-carboxamide]
– | 0.1 to 0.5 µM | 0.1 to 0.5 µM | O=C(N[C@@H]1CCC[C@H](n2c(-c3ccccc3F)nc3cnc(-n4nccn4)cc32)[C@H]1O)c1ncc(Cl)s1 [Example 114, 5-chloro-N-((1R,2S,3S)-3-(2-(2-fluorophenyl)-6-(2H-1,2,3-triazol-2-yl)-1H-imidazo[4,5-c]pyridin-1-yl)-2-hydroxycyclohexyl)thiazole-2-carboxamide]
– | > 1 µM | – | O=C(NC1COCC(n2c(-c3ncccc3F)nc3cnc(-n4ccnn4)cc32)C1)c1ncc(C(F)F)s1 (single isomer, unassigned) [Example 145, 5-(difluoromethyl)-N-(5-(2-(3-fluoropyridin-2-yl)-6-(1H-1,2,3-triazol-1-yl)-1H-imidazo[4,5-c]pyridin-1-yl)tetrahydro-2H-pyran-3-yl)thiazole-2-carboxamide]
– | > 1 µM | – | N#C[C@H]1[C@@H](NC(=O)c2ncc(Cl)s2)CCC[C@H]1n1c(-c2ccccc2F)nc2cnc(-c3nc[nH]n3)cc21 [Example 452, 5-chloro-N-((1S,2S,3R)-2-cyano-3-(2-(2-fluorophenyl)-6-(1H-1,2,4-triazol-3-yl)-1H-imidazo[4,5-c]pyridin-1-yl)cyclohexyl)thiazole-2-carboxamide]
– | 0.1 to 0.5 µM | – | CO[C@H]1C[C@H](NC(=O)c2ncc(Cl)s2)C[C@H](n2c(-c3ccccc3C#N)nc3cnc(-c4nc[nH]n4)cc32)C1 (stereo in doubt) [Example 445, 5-chloro-N-((1R,3S,5S)-3-(2-(2-cyanophenyl)-6-(1H-1,2,4-triazol-3-yl)-1H-imidazo[4,5-c]pyridin-1-yl)-5-methoxycyclohexyl)thiazole-2-carboxamide]
– | > 1 µM | – | O=C(N[C@H]1CCC[C@@H](n2c(C3CNCCO3)nc3cnc(-c4nc[nH]n4)cc32)C1)c1ncc(Cl)s1 (stereo partly drawn) [Example 174, 5-chloro-N-((1S,3R)-3-(2-(morpholin-2-yl)-6-(1H-1,2,4-triazol-3-yl)-1H-imidazo[4,5-c]pyridin-1-yl)cyclohexyl)thiazole-2-carboxamide]
– | 0.1 to 0.5 µM | – | COC(=O)O[C@@H]1[C@@H](NC(=O)c2ncc(Cl)s2)CCC[C@H]1n1c(-c2ccccc2F)nc2cnc(-c3nc[nH]n3)cc21 [Example 447, (1R,2S,6R)-2-(5-chlorothiazole-2-carboxamido)-6-(2-(2-fluorophenyl)-6-(1H-1,2,4-triazol-3-yl)-1H-imidazo[4,5-c]pyridin-1-yl)cyclohexyl methyl carbonate]
– | 0.1 to 0.5 µM | – | CO[C@@H]1C[C@@H](NC(=O)c2ccc(Cl)s2)C[C@@H](n2c(CC(C)C)nc3cnc(-c4ncccn4)cc32)C1 (single isomer, unassigned) [Example 438]
– | ≤ 0.1 µM | – | COCCOc1ccccc1-c1nc2cnc(-c3nc[nH]n3)cc2n1[C@@H]1CCC[C@H](NC(=O)c2ncc(Cl)s2)C1 [Example 464, 5-chloro-N-((1S,3R)-3-(2-(2-(2-methoxyethoxy)phenyl)-6-(1H-1,2,4-triazol-3-yl)-1H-imidazo[4,5-c]pyridin-1-yl)cyclohexyl)thiazole-2-carboxamide]
– | > 1 µM | – | CC(C)Cc1nc2cnc(-c3ccn[nH]3)cc2n1[C@H]1CCC[C@@H](NC(=O)c2ncc(Cl)s2)[C@@H]1O [Example 226, 5-chloro-N-((1R,2S,3S)-2-hydroxy-3-(2-isobutyl-6-(1H-pyrazol-5-yl)-1H-imidazo[4,5-c]pyridin-1-yl)cyclohexyl)thiazole-2-carboxamide]
– | ≤ 0.1 µM | – | CC(C)Cc1nc2cnc(-c3nc[nH]n3)cc2n1[C@@H]1CCC[C@H](NC(=O)c2ncc(Cl)s2)[C@@H]1O [Example 408, 5-chloro-N-((1S,2S,3R)-2-hydroxy-3-(2-isobutyl-6-(1H-1,2,4-triazol-3-yl)-1H-imidazo[4,5-c]pyridin-1-yl)cyclohexyl)thiazole-2-carboxamide]
– | > 1 µM | – | CO[C@H]1C[C@H](NC(=O)c2ncc(Cl)s2)C[C@H](n2c(CC(C)C)nc3cnc(-c4ccccn4)cc32)C1 (stereo in doubt) [Example 425, 5-chloro-N-((1R,3S,5S)-3-(2-isobutyl-6-(pyridin-2-yl)-1H-imidazo[4,5-c]pyridin-1-yl)-5-methoxycyclohexyl)thiazole-2-carboxamide]
– | ≤ 0.1 µM | – | [N-]=[N+]=N[C@@H]1[C@@H](NC(=O)c2ncc(Cl)s2)CCC[C@H]1n1c(-c2ccccc2F)nc2cnc(-c3nc[nH]n3)cc21 [Example 449, N-((1S,2R,3R)-2-azido-3-(2-(2-fluorophenyl)-6-(1H-1,2,4-triazol-3-yl)-1H-imidazo[4,5-c]pyridin-1-yl)cyclohexyl)-5-chlorothiazole-2-carboxamide]
– | > 1 µM | – | CC(O)Cc1nc2cnc(-c3ccccn3)cc2n1[C@@H]1CCC[C@H](NC(=O)c2ncc(Cl)s2)C1 (stereo partly drawn) [Example 360, 5-chloro-N-((1S,3R)-3-(2-(2-hydroxypropyl)-6-(pyridin-2-yl)-1H-imidazo[4,5-c]pyridin-1-yl)cyclohexyl)thiazole-2-carboxamide]
